Test results as given in patent US20220119354A1, “DIAMINO-SUBSTITUTED PYRIDINES AND PYRIMIDINES AS HERBICIDES” (FMC Corporation, priority 2019, published 2022).

How the values were obtained:
Type in all cases: in vivo
[1] = tested on: ducksalad (Heteranthera limosa); assay: Test B flooded paddy test, ducksalad; conditions: Flood, 250 g ai/ha, applied to paddy water, 2-leaf stage, visual evaluation after 13 to 15 d
Procedure, shortened: (§1)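 Pots flooded to 3 cm above the soil when treated, with test compound added straight to the water and the flood maintained. Treated plants were at the 2-leaf stage and stayed 13–15 d in greenhouse. Response versus untreated controls scored visually from 0 (no effect) to 100 (complete control).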

[2] = tested on: pigweed (Amaranthus retroflexus); assay: Test A preemergence, pigweed; conditions: 0 to 100 scale, 0 is no effect, 100 is complete control
Procedure, shortened: (§2)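 Plants grown in a loam soil and sand blend were treated either preemergence by directed soil spray or postemergence when 2 to 10 cm tall (one- to two-leaf stage). Formulation: non-phytotoxic solvent mixture with surfactant. Greenhouse hold ~10 d, then visual injury assessment on a 0–100 scale.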

[3] = tested on: sedge, umbrella (small-flower umbrella sedge, Cyperus difformis); assay: Test B flooded paddy test, umbrella sedge; conditions: Flood, 250 g ai/ha, applied to paddy water, 2-leaf stage, visual evaluation after 13 to 15 d
Procedure, shortened: as §1

[4] = tested on: barnyardgrass (Echinochloa crus-galli); assay: Test A preemergence, barnyardgrass; conditions: 0 to 100 scale, 0 is no effect, 100 is complete control
Procedure, shortened: as §2

[5] = tested on: foxtail, giant (Setaria faberii); assay: Test A postemergence, giant foxtail; conditions: 0 to 100 scale, 0 no effect, 100 complete control
Procedure, shortened: as §2

[6] = tested on: ryegrass, Italian (Lolium multiflorum); assay: Test A postemergence, Italian ryegrass; conditions: 0 to 100 scale, 0 no effect, 100 complete control
Procedure, shortened: as §2

[7] = tested on: corn (Zea mays); assay: Test A postemergence, corn; conditions: 0 to 100 scale, 0 no effect, 100 complete control
Procedure, shortened: as §2

[8] = tested on: kochia (Kochia scoparia); assay: Test A postemergence, kochia; conditions: 0 to 100 scale, 0 no effect, 100 complete control
Procedure, shortened: as §2

[9] = tested on: ragweed (common ragweed, Ambrosia elatior); assay: Test A postemergence, ragweed; conditions: 0 to 100 scale, 0 no effect, 100 complete control
Procedure, shortened: as §2

[10] = tested on: barnyardgrass (Echinochloa crus-galli); assay: Test B flooded paddy test, barnyardgrass; conditions: Flood, 250 g ai/ha, applied to paddy water, 2-leaf stage, visual evaluation after 13 to 15 d
Procedure, shortened: as §1

[11] = tested on: barnyardgrass (Echinochloa crus-galli); assay: Test A postemergence, barnyardgrass; conditions: 0 to 100 scale, 0 no effect, 100 complete control
Procedure, shortened: as §2

[12] = tested on: pigweed (Amaranthus retroflexus); assay: Test A postemergence, pigweed; conditions: 0 to 100 scale, 0 no effect, 100 complete control
Procedure, shortened: as §2

[13] = tested on: galium (catchweed bedstraw, Galium aparine); assay: Test A postemergence, galium; conditions: 0 to 100 scale, 0 no effect, 100 complete control
Procedure, shortened: as §2

[14] = tested on: foxtail, giant (Setaria faberii); assay: Test A preemergence, giant foxtail; conditions: 0 to 100 scale, 0 is no effect, 100 is complete control
Procedure, shortened: as §2

[15] = tested on: blackgrass (Alopecurus myosuroides); assay: Test A postemergence, blackgrass; conditions: 0 to 100 scale, 0 no effect, 100 complete control
Procedure, shortened: as §2

[16] = tested on: rice (Oryza sativa); assay: Test B flooded paddy test, rice; conditions: Flood, 250 g ai/ha, applied to paddy water, 2-leaf stage, visual evaluation after 13 to 15 d
Procedure, shortened: as §1

[17] = tested on: ragweed (common ragweed, Ambrosia elatior); assay: Test A preemergence, ragweed; conditions: 0 to 100 scale, 0 is no effect, 100 is complete control
Procedure, shortened: as §2

[18] = tested on: wheat (Triticum aestivum); assay: Test A postemergence, wheat; conditions: 0 to 100 scale, 0 no effect, 100 complete control
Procedure, shortened: as §2

[19] = tested on: kochia (Kochia scoparia); assay: Test A preemergence, kochia; conditions: 0 to 100 scale, 0 is no effect, 100 is complete control
Procedure, shortened: as §2

[20] = tested on: ryegrass, Italian (Lolium multiflorum); assay: Test A preemergence, Italian ryegrass; conditions: 0 to 100 scale, 0 is no effect, 100 is complete control
Procedure, shortened: as §2

Structure (SMILES) | Plant response rating, Ducksalad (0 to 100 scale, 0 is no effect, 100 is complete control) [1] | Pigweed plant response rating ([2]; 125 g ai/ha) | Pigweed plant response rating ([2]; 500 g ai/ha) | Plant response rating, Sedge, Umbrella (0 to 100 scale, 0 is no effect, 100 is complete control) [3] | Barnyardgrass plant response rating ([4]; 125 g ai/ha) | Barnyardgrass plant response rating ([4]; 500 g ai/ha) | Plant response rating, Foxtail, Giant ([5]; 125 g ai/ha) | Plant response rating, Foxtail, Giant ([5]; 500 g ai/ha) | Plant response rating, Ryegrass, Italian ([6]; 125 g ai/ha) | Plant response rating, Ryegrass, Italian ([6]; 500 g ai/ha) | Plant response rating, Corn ([7]; 125 g ai/ha) | Plant response rating, Corn ([7]; 500 g ai/ha) | Plant response rating, Kochia ([8]; 125 g ai/ha) | Plant response rating, Kochia ([8]; 500 g ai/ha) | Plant response rating, Ragweed ([9]; 125 g ai/ha) | Plant response rating, Ragweed ([9]; 500 g ai/ha) | Plant response rating, Barnyardgrass (0 to 100 scale, 0 is no effect, 100 is complete control) [10] | Plant response rating, Barnyardgrass ([11]; 125 g ai/ha) | Plant response rating, Barnyardgrass ([11]; 500 g ai/ha) | Plant response rating, Pigweed ([12]; 125 g ai/ha) | other results
CC(Nc1ncc(C(F)(F)F)c(N)n1)c1coc2cc(Cl)ccc12 (racemic) [Compound 77] | 0 | 40 | 90 | 0 | 0 | 0 | 0 | 20 | 0 | 40 | 0 | 20 | 30 | 90 | 20 | 90 | 0 | 0 | 0 | 70 | Plant response rating, Pigweed ([12]; 500 g ai/ha): 100; Plant response rating, Galium ([13]; 125 g ai/ha): 50; Plant response rating, Galium ([13]; 500 g ai/ha): 80; Foxtail, Giant plant response rating ([14]; 125 g ai/ha): 20; Foxtail, Giant plant response rating ([14]; 500 g ai/ha): 40; Plant response rating, Blackgrass ([15]; 125 g ai/ha): 0; Plant response rating, Blackgrass ([15]; 500 g ai/ha): 0; Plant response rating, Rice (0 to 100 scale, 0 is no effect, 100 is complete control) [16]: 0; Ragweed plant response rating ([17]; 125 g ai/ha): 80; Ragweed plant response rating ([17]; 500 g ai/ha): 90; Plant response rating, Wheat ([18]; 125 g ai/ha): 20; Plant response rating, Wheat ([18]; 500 g ai/ha): 30; Kochia plant response rating ([19]; 125 g ai/ha): 50; Kochia plant response rating ([19]; 500 g ai/ha): 60; Ryegrass, Italian plant response rating ([20]; 125 g ai/ha): 20; Ryegrass, Italian plant response rating ([20]; 500 g ai/ha): 30
Nc1nc(NC(c2cc3ccccc3s2)C2CC2)ncc1C(F)(F)F (racemic) [Compound 94] | 40 | 60 | 100 | 45 | 0 | 90 | 60 | 90 | 50 | 90 | 0 | 20 | 70 | 90 | 50 | 70 | 35 | 40 | 90 | 90 | Plant response rating, Pigweed ([12]; 500 g ai/ha): 100; Plant response rating, Galium ([13]; 125 g ai/ha): 40; Plant response rating, Galium ([13]; 500 g ai/ha): 80; Foxtail, Giant plant response rating ([14]; 125 g ai/ha): 70; Foxtail, Giant plant response rating ([14]; 500 g ai/ha): 100; Plant response rating, Blackgrass ([15]; 125 g ai/ha): 0; Plant response rating, Blackgrass ([15]; 500 g ai/ha): 0; Plant response rating, Rice (0 to 100 scale, 0 is no effect, 100 is complete control) [16]: 10; Ragweed plant response rating ([17]; 125 g ai/ha): 50; Ragweed plant response rating ([17]; 500 g ai/ha): 90; Plant response rating, Wheat ([18]; 125 g ai/ha): 0; Plant response rating, Wheat ([18]; 500 g ai/ha): 30; Kochia plant response rating ([19]; 125 g ai/ha): 60; Kochia plant response rating ([19]; 500 g ai/ha): 90; Ryegrass, Italian plant response rating ([20]; 125 g ai/ha): 50; Ryegrass, Italian plant response rating ([20]; 500 g ai/ha): 90
